Reference: patent publication US10294202B2, “Pyrrolidinones as herbicides” (FMC Corporation, priority 2013, dated 2019)
Read-outs that look alike come from different tables or passages of the source.

Experiments:
barnyardgrass = assay: Test F flood (paddy) test; format: in vivo, Echinochloa crus-galli; settings: 21 d, scale 0-100
Source text: Three plastic pots (ca. 16-cm diameter) per rate were partially filled with sterilized Tama silt loam soil comprising a 35:50:15 ratio of sand, silt and clay and 2.6% organic matter. Separate plantings for each of the three pots were as follows. Seeds from the U.S. of monochoria (Monochoria vaginalis), sedge, umbrella (small-flower umbrella sedge, Cyperus difformis), bulrush, […] bulrush, Scirpus juncoides), and […] (purple […] coccinea), were planted into one 16-cm pot for each rate. Seeds from the U.S. of flatsedge, rice (rice flatsedge, Cyperus iria), sprangletop, Brdd. (bearded sprangletop, Leptochloa fascicularis), one stand of 9 or 10 water seeded rice seedlings (Rice, W.S. Jap, Oryza sativa cv. 'Japonica-[…]' or Rice, W.S. Ind, 'Indica'), and two stands of 3 or 4 seedlings of rice, transplanted (transplanted rice, Oryza sativa cv. 'Japonica-[…]') were planted into one 16-cm pot for each rate. Seeds from the U.S. of barnyardgrass (Echinochloa crus-galli), […] (common […], Alisma plantago-aquatica), and watergrass, late (late watergrass, Echinochloa oryzicola) were planted into one 16-cm pot for each rate. Plantings were sequential so that crop and weed species were at the 2.0 to 2.5-leaf stage at time of treatment. Potted plants were grown in a greenhouse with day/night temperature settings of 30/27° C., and supplemental balanced lighting was provided to maintain a 16-h photoperiod. Test pots were maintained in the greenhouse until test completion. At time of treatment, test pots were flooded to 3 cm above the soil surface, treated by application of test compounds directly to the paddy water, and then maintained at that water depth for the duration of the test. Effects of treatments on rice and weeds were visually evaluated by comparison to untreated controls after 21 d. Plant response ratings, summarized in Table F, are based on a scale of 0 to 100 where 0 is no effect and 100 is complete control. A dash (-) response means no test result.

crabgrass, large = assay: Test A pre-/postemergence herbicide test; format: in vivo, Digitaria sanguinalis; settings: for pest or weed control at 1000 g/ha: 1000 g ai/ha
Method in brief: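 Approximately 10 days after treatment in the greenhouse, plants were compared with untreated controls and given a 0–100 visual injury rating. Applications: preemergence directed soil spray; postemergence on 2–10 cm plants at the one- to two-leaf stage.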

chickweed = assay: Test C postemergence herbicide test; format: in vivo, Stellaria media
Source text: At the same time, plants selected from these crop and weed species and also barley (winter barley, Hordeum vulgare), […]), chickweed (common chickweed, Stellaria media), deadnettle (henbit deadnettle, Lamium amplexicaule), and canarygrass (littleseed canarygrass, Phalaris minor) were planted in pots containing Redi-Earth® planting medium (Scotts Company, 14111 Scottslawn Road, Marysville, Ohio 43041) comprising spaghnum peat moss, vermiculite, wetting agent and starter nutrients and treated with postemergence applications of test chemicals formulated in the same manner. Plants ranged in height from 2 to 18 cm (1- to 4-leaf stage) for postemergence treatments. Treated plants and controls were maintained in a greenhouse for 13 to 15 days, after which time all species were compared to controls and visually evaluated. Plant response ratings, summarized in Table C, are based on a scale of 0 to 100 where 0 is no effect and 100 is complete control. A dash (-) response means no test result.

nutsedge, yellow = assay: Test E preemergence herbicide test; format: in vivo, Cyperus esculentus; set-up: key: 0 = no effect, 100 = complete control
Method in brief: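 Seeds were sown in silt loam soil and treated preemergence with test chemicals in a non-phytotoxic solvent mixture containing a surfactant. Plants were kept in a greenhouse for 21 days, then visually rated against untreated controls on a 0–100 scale (0 = no effect, 100 = complete control).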

[1] = Preemergence, 125 g ai/ha, visual rating on 0 to 100 scale (0 no effect, 100 complete control)
[2] = 31 g ai/ha, scale 0 (no effect) to 100 (complete control)
[3] = 62 g ai/ha, scale 0 to 100 (0 no effect, 100 complete control)
[4] = 125 g ai/ha, scale 0 to 100 (0 no effect, 100 complete control)
[5] = 250 g ai/ha, scale 0 to 100 (0 no effect, 100 complete control)
[6] = 31 g ai/ha, scale 0 to 100 (0 no effect, 100 complete control)
[7] = 62 g ai/ha, scale 0 (no effect) to 100 (complete control)

In the case of `O=C1NCC(c2ccc(F)c(F)c2)C1C(=O)Nc1cccc(F)c1F` (racemic) [Compound 101], the “Plant response rating, Barnyardgrass” value (barnyardgrass; 64 g ai/ha) is reported as 60, the “Plant response rating, Barnyardgrass” value (barnyardgrass; 125 g ai/ha) is reported as 85 and the “Plant response rating, Barnyardgrass” value (barnyardgrass; 250 g ai/ha) is reported as 85. For the same compound, the “Plant response rating, Barnyardgrass” value (barnyardgrass; 500 g ai/ha) was 90, the “Plant response rating, Crabgrass, Large” value (crabgrass, large; Postemergence, 125 g ai/ha, 0 to 100 scale, 0 no effect, 100 complete control) was 80 and the “Plant response rating, Crabgrass, Large” value (crabgrass, large; Postemergence, 500 g ai/ha, 0 to 100 scale (0 no effect, 100 complete control)) was 80. The “Crabgrass, Large plant response rating” value (crabgrass, large; [1]) was 90, the “Plant response rating, Crabgrass, Large” value (crabgrass, large; preemergence, 500 g ai/ha, 0 to 100 scale) was 100 and the “Plant response rating, Chickweed” value (chickweed; [2]) was 35. The “Plant response rating, Chickweed” value (chickweed; [3]) was 60, the “Plant response rating, Chickweed” value (chickweed; [4]) was 70 and the “Plant response rating, Chickweed” value (chickweed; [5]) was 80.
In the case of `O=C1NCC(c2cccc(C(F)F)c2)C1C(=O)Nc1ccccc1F` (racemic) [Compound 210], the “Plant response rating, Barnyardgrass” value (barnyardgrass; 125 g ai/ha) is reported as 75, the “Plant response rating, Barnyardgrass” value (barnyardgrass; 250 g ai/ha) is reported as 100 and the “Plant response rating, Barnyardgrass” value (barnyardgrass; 500 g ai/ha) is reported as 100.
With `O=C1NCCC1C(=O)N(c1ccc(F)c(F)c1)c1ccccc1F` (stereo not shown) [Compound 5, N-(3,4-difluorophenyl)-N-(2-fluorophenyl)-2-oxo-3-pyrrolidinecarboxamide] the “Plant response rating, Barnyardgrass” value (barnyardgrass; 125 g ai/ha) was 55, the “Plant response rating, Barnyardgrass” value (barnyardgrass; 250 g ai/ha) was 65 and the “Plant response rating, Barnyardgrass” value (barnyardgrass; 500 g ai/ha) was 75. The “Plant response rating, Barnyardgrass” value (barnyardgrass; 1000 g ai/ha) was 90, the “Plant response rating, Barnyardgrass” value (barnyardgrass; 2000 g ai/ha) was 90 and the pest or weed control at 125 g/ha (crabgrass, large; Digitaria sanguinalis, post-emergence, 240 h, Postemergence, 125 g ai/ha, 0 to 100 scale, 0 no effect, 100 complete control, read-out: Plant response rating, Crabgrass, Large) was 70%. The pest or weed control at 500 g/ha (crabgrass, large; Digitaria sanguinalis, post-emergence, 240 h, Postemergence, 500 g ai/ha, 0 to 100 scale (0 no effect, 100 complete control), read-out: Plant response rating, Crabgrass, Large) was 80%, the pest or weed control at 500 g/ha (crabgrass, large; Digitaria sanguinalis, pre-emergence, 240 h, preemergence, 500 g ai/ha, 0 to 100 scale, read-out: Plant response rating, Crabgrass, Large) was 90% and the “Crabgrass, Large plant response rating” value (crabgrass, large; [1]) was 80.
For `O=C1NCC(c2ccc(F)c(F)c2)C1C(=O)Nc1cccc(F)c1F` (stereo not shown) [Compound 17, N-(2,3-difluorophenyl)-4-(3,4-difluorophenyl)-2-oxo-3-pyrrolidinecarboxamide], the “Plant response rating, Barnyardgrass” value (barnyardgrass; 125 g ai/ha) was 90, the “Plant response rating, Barnyardgrass” value (barnyardgrass; 250 g ai/ha) was 90 and the “Plant response rating, Barnyardgrass” value (barnyardgrass; 500 g ai/ha) was 90. The “Plant response rating, Barnyardgrass” value (barnyardgrass; 1000 g ai/ha) was 95, the “Plant response rating, Barnyardgrass” value (barnyardgrass; 2000 g ai/ha) was 100 and the pest or weed control at 1000 g/ha (crabgrass, large; Digitaria sanguinalis, post-emergence, 240 h, Postemergence, 0 to 100 scale (0 no effect, 100 complete control), read-out: Plant response rating, Crabgrass, Large) was 90%. The pest or weed control at 1000 g/ha (crabgrass, large; Digitaria sanguinalis, pre-emergence, 240 h, Preemergence, visual rating on 0 to 100 scale (0 no effect, 100 complete control), approx. 10 days, read-out: Plant response rating, Crabgrass, Large) was 90%, the “Plant response rating, Chickweed” value (chickweed; [2]) was 0 and the “Plant response rating, Chickweed” value (chickweed; [3]) was 0. The “Plant response rating, Chickweed” value (chickweed; [4]) was 0, the “Plant response rating, Chickweed” value (chickweed; [5]) was 10 and the “Plant response rating, Nutsedge, Yellow” value (nutsedge, yellow; 16 g ai/ha) was 0. The “Plant response rating, Nutsedge, Yellow” value (nutsedge, yellow; 31 g ai/ha) was 0, the “Plant response rating, Nutsedge, Yellow” value (nutsedge, yellow; 62 g ai/ha) was 0 and the “Plant response rating, Nutsedge, Yellow” value (nutsedge, yellow; 125 g ai/ha) was 0. For the same compound, the “Plant response rating, Nutsedge, Yellow” value (nutsedge, yellow; 250 g ai/ha) was 15.
With `O=C1NC[C@H](c2cccc(C(F)(F)F)c2)[C@H]1C(=O)Nc1ccccc1F` [Compound 204, (3R,4S)—N-(2-fluorophenyl)-2-oxo-4-[3-(trifluoromethyl)phenyl]-3-pyrrolidinecarboxamide] the “Plant response rating, Barnyardgrass” value (barnyardgrass; 125 g ai/ha) was 100, the “Plant response rating, Barnyardgrass” value (barnyardgrass; 250 g ai/ha) was 100 and the “Plant response rating, Barnyardgrass” value (barnyardgrass; 500 g ai/ha) was 100. For the same compound, the “Plant response rating, Chickweed” value (chickweed; [6]) was 0, the “Plant response rating, Chickweed” value (chickweed; [7]) was 30 and the “Plant response rating, Chickweed” value (chickweed; [4]) was 55. The “Plant response rating, Chickweed” value (chickweed; [5]) was 65, the “Plant response rating, Nutsedge, Yellow” value (nutsedge, yellow; 31 g ai/ha) was 0 and the “Plant response rating, Nutsedge, Yellow” value (nutsedge, yellow; 62 g ai/ha) was 0. For the same compound, the “Plant response rating, Nutsedge, Yellow” value (nutsedge, yellow; 125 g ai/ha) was 0 and the “Plant response rating, Nutsedge, Yellow” value (nutsedge, yellow; 250 g ai/ha) was 0.
`O=C1NC[C@H](c2cccc(C(F)(F)F)c2)[C@H]1C(=O)Nc1cccc(F)c1F` [Compound 206] was tested, and the “Plant response rating, Barnyardgrass” value (barnyardgrass; 64 g ai/ha) was 90, the “Plant response rating, Barnyardgrass” value (barnyardgrass; 125 g ai/ha) was 100 and the “Plant response rating, Barnyardgrass” value (barnyardgrass; 250 g ai/ha) was 100. For the same compound, the “Plant response rating, Barnyardgrass” value (barnyardgrass; 500 g ai/ha) was 100, the “Plant response rating, Chickweed” value (chickweed; [6]) was 85 and the “Plant response rating, Chickweed” value (chickweed; [7]) was 60. The “Plant response rating, Chickweed” value (chickweed; [4]) was 85, the “Plant response rating, Chickweed” value (chickweed; [5]) was 85 and the “Plant response rating, Nutsedge, Yellow” value (nutsedge, yellow; 31 g ai/ha) was 15. The “Plant response rating, Nutsedge, Yellow” value (nutsedge, yellow; 62 g ai/ha) was 15, the “Plant response rating, Nutsedge, Yellow” value (nutsedge, yellow; 125 g ai/ha) was 20 and the “Plant response rating, Nutsedge, Yellow” value (nutsedge, yellow; 250 g ai/ha) was 75.
With `CN1CC(c2ccc(F)c(F)c2)C(C(=O)Nc2cccc(F)c2F)C1=O` (stereo not shown) [Compound 303] the “Plant response rating, Barnyardgrass” value (barnyardgrass; 62 g ai/ha) was 100, the “Plant response rating, Barnyardgrass” value (barnyardgrass; 125 g ai/ha) was 100 and the “Plant response rating, Barnyardgrass” value (barnyardgrass; 250 g ai/ha) was 100. For the same compound, the “Plant response rating, Barnyardgrass” value (barnyardgrass; 500 g ai/ha) was 100.
